± gives the expanded uncertainty stated by the source.
Legend:
[1] = Molar enthalpy of transition or fusion; conditions: DSC

Triple point temperature (Crystal 2, DSC): 858 ± 1 K | Triple point temperature (Crystal 2, Volume change): 865 ± 10 K | Triple point temperature (Crystal 3, DSC): 451 ± 1 K | Triple point temperature (Crystal 3, Volume change): 456 ± 5 K | Molar enthalpy of transition or fusion ([1]; Crystal 2): 0.287 ± 0.143 kcal/mol | Molar enthalpy of transition or fusion ([1]; Crystal 3): 1 ± 0.191 kcal/mol
Compound: [Ag+].[Ag+].[S-2] [silver sulfide]

From the NIST ThermoML archive (doi:10.1016/j.tca.2017.12.013)
